Data as given in patent US20260325533A1, “CDK INHIBITOR COMPOUNDS” (ALEKSIA THERAPEUTICS, INC., priority 2023, published 2026).
Like-named read-outs stand apart in the source and are kept apart here.

What was measured:
Format in all cases: biochemical
CDK2/CCNE1 = CDK2/CCNE1 (Homo sapiens, UniProt P24941); assay: CDK2 homogeneous time-resolved fluorescence (HTRF) kinase assay; conditions: CDK2/CCNE
Method in brief: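 IC50 derived from 11-point, half-log dilutions (usually top 10 μM) of compound, 1% DMSO. Kinase (3 nM CDK2/CCNE1) was preincubated with compound 20 min, then phosphorylated 50 nM ULight-4E-BP1 peptide at 1 mM ATP for 60 min, 23 °C. Europium-antibody TR-FRET read after EDTA stop.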

CDK1/CCNB1 = CDK1/CCNB1 (Homo sapiens, UniProt P06493); assay: CDK1 homogeneous time-resolved fluorescence (HTRF) kinase assay; conditions: CDK1/CCNB
CDK1/CCNB1, sequence (P06493 whole entry): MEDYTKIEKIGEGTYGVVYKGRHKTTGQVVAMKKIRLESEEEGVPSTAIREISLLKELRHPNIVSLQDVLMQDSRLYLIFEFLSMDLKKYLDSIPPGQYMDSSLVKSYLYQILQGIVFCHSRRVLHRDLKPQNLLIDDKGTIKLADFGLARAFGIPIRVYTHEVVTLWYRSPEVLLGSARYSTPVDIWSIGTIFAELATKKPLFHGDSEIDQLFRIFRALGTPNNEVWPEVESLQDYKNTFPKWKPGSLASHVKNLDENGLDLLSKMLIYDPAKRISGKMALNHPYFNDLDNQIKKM
CDK1/CCNB1, sequence (P14635 whole entry partner): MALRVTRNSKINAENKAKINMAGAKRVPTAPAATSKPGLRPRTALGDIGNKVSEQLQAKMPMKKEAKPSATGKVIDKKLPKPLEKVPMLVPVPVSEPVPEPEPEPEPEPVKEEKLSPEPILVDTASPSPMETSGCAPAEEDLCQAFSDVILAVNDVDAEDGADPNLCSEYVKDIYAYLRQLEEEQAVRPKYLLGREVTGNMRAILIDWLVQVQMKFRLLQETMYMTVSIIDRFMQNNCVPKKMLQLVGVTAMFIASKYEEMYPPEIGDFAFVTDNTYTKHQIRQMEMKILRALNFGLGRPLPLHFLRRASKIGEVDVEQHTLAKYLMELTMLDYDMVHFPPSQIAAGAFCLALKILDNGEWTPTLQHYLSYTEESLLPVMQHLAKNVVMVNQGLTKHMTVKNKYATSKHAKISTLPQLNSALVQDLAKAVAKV
Method in brief: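 0.5 nM CDK1/CCNB1 was preincubated 20 min at 23 °C with compound in HEPES pH-unspecified buffer (MgCl2, EGTA, DTT, Tween 20), then reacted 60 min with 1 mM ATP and 50 nM ULight-4E-BP1 (Thr37/46) peptide. EDTA-stopped reactions were detected with 2 nM Eu-anti-phospho antibody; IC50 from 11-point half-log titrations.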

CDK4/CCND3 = CDK4/CCND3 (Homo sapiens, UniProt P11802); assay: CDK4 homogeneous time-resolved fluorescence (HTRF) kinase assay; conditions: CDK4/CCND
CDK4/CCND3, sequence (P11802 whole entry): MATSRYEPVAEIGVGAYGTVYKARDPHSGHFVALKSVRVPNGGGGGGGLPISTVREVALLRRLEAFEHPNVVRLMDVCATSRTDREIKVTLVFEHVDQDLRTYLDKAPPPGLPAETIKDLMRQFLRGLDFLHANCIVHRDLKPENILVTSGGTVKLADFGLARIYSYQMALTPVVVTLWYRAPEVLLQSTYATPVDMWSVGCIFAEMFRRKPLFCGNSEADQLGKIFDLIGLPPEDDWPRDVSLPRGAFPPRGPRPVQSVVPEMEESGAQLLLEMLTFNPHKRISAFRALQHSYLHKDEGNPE
CDK4/CCND3, sequence (P30281 whole entry partner): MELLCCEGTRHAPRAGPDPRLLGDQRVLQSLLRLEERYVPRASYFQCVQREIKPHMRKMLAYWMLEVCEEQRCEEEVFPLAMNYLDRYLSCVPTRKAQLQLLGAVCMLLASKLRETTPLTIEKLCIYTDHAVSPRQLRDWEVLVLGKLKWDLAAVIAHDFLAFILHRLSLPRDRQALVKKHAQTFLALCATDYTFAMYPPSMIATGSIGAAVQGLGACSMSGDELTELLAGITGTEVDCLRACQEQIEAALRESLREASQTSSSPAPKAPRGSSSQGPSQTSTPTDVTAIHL
Method in brief: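 TR-FRET read (665 nm, or 665/615 ratio) of 4E-BP1 Thr37/46 phosphorylation by 1.5 nM CDK4/CCND3 at 1 mM ATP, 50 nM ULight peptide, 1% DMSO. Reaction ran 60 min at 23 °C after 20 min compound–enzyme preincubation. IC50 from 11-point half-log dilutions, top 10 μM.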

CDK6/CCND1 = CDK6/CCND1 (Homo sapiens, UniProt Q00534); assay: CDK6 homogeneous time-resolved fluorescence (HTRF) kinase assay; conditions: CDK6/CCND
CDK6/CCND1, sequence (Q00534 whole entry): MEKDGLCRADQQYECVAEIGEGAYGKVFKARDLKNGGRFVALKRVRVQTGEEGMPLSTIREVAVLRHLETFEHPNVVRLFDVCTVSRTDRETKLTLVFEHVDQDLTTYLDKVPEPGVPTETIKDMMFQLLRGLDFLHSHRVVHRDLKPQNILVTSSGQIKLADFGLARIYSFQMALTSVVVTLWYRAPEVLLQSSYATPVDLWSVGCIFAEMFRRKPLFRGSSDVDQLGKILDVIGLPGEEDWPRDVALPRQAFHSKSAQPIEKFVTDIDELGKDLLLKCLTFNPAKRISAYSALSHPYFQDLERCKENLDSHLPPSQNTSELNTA
CDK6/CCND1, sequence (P24385 whole entry partner): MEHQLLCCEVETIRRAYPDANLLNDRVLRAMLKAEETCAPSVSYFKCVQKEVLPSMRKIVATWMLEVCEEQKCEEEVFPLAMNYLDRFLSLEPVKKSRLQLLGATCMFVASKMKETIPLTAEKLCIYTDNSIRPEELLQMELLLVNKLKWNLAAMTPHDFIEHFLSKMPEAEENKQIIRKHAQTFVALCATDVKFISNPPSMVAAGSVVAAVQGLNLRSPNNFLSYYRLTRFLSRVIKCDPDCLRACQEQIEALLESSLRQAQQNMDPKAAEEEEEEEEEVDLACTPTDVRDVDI
Method in brief: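 Assay conditions: HEPES buffer containing 10 mM MgCl2, 1 mM EGTA, 2 mM DTT, 0.01% Tween 20; 1 nM CDK6/CCND1, 50 nM peptide substrate, 1 mM ATP. Detection after 60 min reaction used 2 nM europium antibody with 340 nm excitation. Potency fitted from half-log series, 11 points.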

[1] = <25 nM, read-out: CDK2/CCNE IC50 <25 nM
[2] = 25-250 nM marked x, read-out: CDK1/CCNB IC50 25-250 nM
[3] = 25-250 nM marked x, read-out: CDK4/CCND IC50 25-250 nM
[4] = 25-250 nM marked x, read-out: CDK6/CCND IC50 25-250 nM
[5] = >250 nM marked x, read-out: CDK1/CCNB IC50 >250 nM
[6] = <25 nM, read-out: CDK4/CCND IC50 <25 nM
[7] = <25 nM, read-out: CDK6/CCND IC50 <25 nM
[8] = 25-250 nM marked x, read-out: CDK2/CCNE IC50 25-250 nM

Row | Structure (SMILES) | IC50 (CDK2/CCNE1; [1]) [nM] | IC50 (CDK1/CCNB1; [2]) [nM] | IC50 (CDK4/CCND3; [3]) [nM] | IC50 (CDK6/CCND1; [4]) [nM] | IC50 (CDK1/CCNB1; [5]) [nM] | IC50 (CDK4/CCND3; [6]) [nM] | IC50 (CDK6/CCND1; [7]) [nM] | IC50 (CDK2/CCNE1; [8]) [nM]
1 | CS(=O)(=O)N1CCC(Nc2cc3c(-c4ccc5[nH]ccc5c4)nccc3cn2)CC1 [Ex 63, 5-(1H-indol-5-yl)-N-(1-(methylsulfonyl)piperidin-4-yl)-2,6-naphthyridin-3-amine] | < 25 | 25 to 250 |  |  |  | < 25 | < 25 | 
2 | CS(=O)(=O)N1CCC(Nc2cc3c(-c4cccc(CO)c4)nccc3cn2)CC1 [Ex 64, (3-(7-((1-(methylsulfonyl)piperidin-4-yl)amino)-2,6-naphthyridin-1-yl)phenyl)methanol] | < 25 | 25 to 250 |  |  |  | < 25 | < 25 | 
3 | CS(=O)(=O)N1CCC(Nc2cc3c(-c4ccc(O)cc4)nccc3cn2)CC1 [Ex 68, 4-(7-((1-(methylsulfonyl)piperidin-4-yl)amino)-2,6-naphthyridin-1-yl)phenol] | < 25 |  | 25 to 250 |  | > 250 |  | < 25 | 
4 | CS(=O)(=O)N1CCC(Nc2cc3c(-c4cccc(O)c4)nccc3cn2)CC1 [Ex 69, 3-(7-((1-(methylsulfonyl)piperidin-4-yl)amino)-2,6-naphthyridin-1-yl)phenol] | < 25 | 25 to 250 | 25 to 250 | 25 to 250 |  |  |  | 
5 | CS(=O)(=O)N1CCC(Nc2cc3c(-c4ccc5ocnc5c4)nccc3cn2)CC1 [Ex 70, 5-(benzo[d]oxazol-5-yl)-N-(1-(methylsulfonyl)piperidin-4-yl)-2,6-naphthyridin-3-amine] | < 25 |  | 25 to 250 |  | > 250 |  | < 25 | 
6 | COCc1cccc(-c2nccc3cnc(NC4CCN(S(C)(=O)=O)CC4)cc23)c1 [Ex 71, 5-(3-(methoxymethyl)phenyl)-N-(1-(methylsulfonyl)piperidin-4-yl)-2,6-naphthyridin-3-amine] | < 25 | 25 to 250 | 25 to 250 | 25 to 250 |  |  |  | 
7 | CS(=O)(=O)N1CCC(Nc2cc3c(-c4cccc(N)c4)nccc3cn2)CC1 [Ex 72, 5-(3-aminophenyl)-N-(1-(methylsulfonyl)piperidin-4-yl)-2,6-naphthyridin-3-amine] | < 25 |  | 25 to 250 | 25 to 250 | > 250 |  |  | 
8 | CS(=O)(=O)N1CCC(Nc2cc3c(-c4ccc(N)cc4)nccc3cn2)CC1 [Ex 73, 5-(4-aminophenyl)-N-(1-(methylsulfonyl)piperidin-4-yl)-2,6-naphthyridin-3-amine] | < 25 | 25 to 250 | 25 to 250 |  |  |  | < 25 | 
9 | CS(=O)(=O)N1CCC(Nc2cc3c(-c4ccc(C#N)cc4)nccc3cn2)CC1 [Ex 74, 4-(7-((1-(methylsulfonyl)piperidin-4-yl)amino)-2,6-naphthyridin-1-yl)benzonitrile] | < 25 |  | 25 to 250 | 25 to 250 | > 250 |  |  | 
10 | CS(=O)(=O)N1CCC(Nc2cc3c(-c4cccc(C#N)c4)nccc3cn2)CC1 [Ex 75, 3-(7-((1-(methylsulfonyl)piperidin-4-yl)amino)-2,6-naphthyridin-1-yl)benzonitrile] | < 25 |  | 25 to 250 | 25 to 250 | > 250 |  |  | 
11 | CS(=O)(=O)N1CCC(Nc2cc3c(-c4ccc5cn[nH]c5c4)nccc3cn2)CC1 [Ex 76, 5-(1H-indazol-6-yl)-N-(1-(methylsulfonyl)piperidin-4-yl)-2,6-naphthyridin-3-amine] | < 25 | 25 to 250 |  |  |  | < 25 | < 25 | 
12 | CS(=O)(=O)N1CCC(Nc2cc3c(-c4ccc5[nH]ncc5c4)nccc3cn2)CC1 [Ex 77, 5-(1H-indazol-5-yl)-N-(1-(methylsulfonyl)piperidin-4-yl)-2,6-naphthyridin-3-amine] | < 25 |  | 25 to 250 | 25 to 250 | > 250 |  |  | 

Further lines, results first:

Row | IC50 (CDK2/CCNE1; [1]) [nM] | IC50 (CDK1/CCNB1; [2]) [nM] | IC50 (CDK4/CCND3; [3]) [nM] | IC50 (CDK6/CCND1; [4]) [nM] | IC50 (CDK1/CCNB1; [5]) [nM] | IC50 (CDK4/CCND3; [6]) [nM] | IC50 (CDK6/CCND1; [7]) [nM] | IC50 (CDK2/CCNE1; [8]) [nM] | Structure (SMILES)
13 | < 25 | 25 to 250 | 25 to 250 | 25 to 250 |  |  |  |  | CS(=O)(=O)N1CCC(Nc2cc3c(N4CC5(CC(O)C5)C4)nccc3cn2)CC1 [Ex 36, 2-(7-((1-(methylsulfonyl)piperidin-4-yl)amino)-2,6-naphthyridin-1-yl)-2-azaspiro[3.3]heptan-6-ol]
14 | < 25 |  | 25 to 250 | 25 to 250 | > 250 |  |  |  | CS(=O)(=O)N1CCC(Nc2cc3c(N4CCC(C#N)CC4)nccc3cn2)CC1 [Ex 37, 1-(7-((1-(methylsulfonyl)piperidin-4-yl)amino)-2,6-naphthyridin-1-yl)piperidine-4-carbonitrile]
15 | < 25 |  |  |  | > 250 | < 25 | < 25 |  | CS(=O)(=O)N1CCC(Nc2cc3c(N4CCC(CO)CC4)nccc3cn2)CC1 [Ex 41, (1-(7-((1-(methylsulfonyl)piperidin-4-yl)amino)-2,6-naphthyridin-1-yl)piperidin-4-yl)methanol]
16 | < 25 |  | 25 to 250 | 25 to 250 | > 250 |  |  |  | CS(=O)(=O)N1CCC(Nc2cc3c(N4CC(C#N)C4)nccc3cn2)CC1 [Ex 43, 1-(7-((1-(methylsulfonyl)piperidin-4-yl)amino)-2,6-naphthyridin-1-yl)azetidine-3-carbonitrile]
17 | < 25 | 25 to 250 | 25 to 250 | 25 to 250 |  |  |  |  | CN(c1nccc2cnc(NC3CCN(S(C)(=O)=O)CC3)cc12)C1CCCCC1 [Ex 44, N1-cyclohexyl-N1-methyl-N7-(1-(methylsulfonyl)piperidin-4-yl)-2,6-naphthyridine-1,7-diamine]
18 |  |  | 25 to 250 | 25 to 250 | > 250 |  |  | 25 to 250 | CN(c1nccc2cnc(NC3CCN(S(C)(=O)=O)CC3)cc12)C1CC1 [Ex 46, N1-cyclopropyl-N1-methyl-N7-(1-(methylsulfonyl)piperidin-4-yl)-2,6-naphthyridine-1,7-diamine]
19 |  | 25 to 250 |  |  |  | < 25 | < 25 | 25 to 250 | CS(=O)(=O)N1CCC(Nc2cc3c(N4CCC(F)(F)CC4)nccc3cn2)CC1 [Ex 47, 5-(4,4-difluoropiperidin-1-yl)-N-(1-(methylsulfonyl)piperidin-4-yl)-2,6-naphthyridin-3-amine]
20 |  |  |  |  | > 250 | < 25 | < 25 | 25 to 250 | CS(=O)(=O)N1CCC(Nc2cc3c(N4CCNC(=O)C4)nccc3cn2)CC1 [Ex 48, 4-(7-((1-(methylsulfonyl)piperidin-4-yl)amino)-2,6-naphthyridin-1-yl)piperazin-2-one]
21 |  |  | 25 to 250 | 25 to 250 | > 250 |  |  | 25 to 250 | CN(C)C1CCN(c2nccc3cnc(NC4CCN(S(C)(=O)=O)CC4)cc23)CC1 [Ex 49, 5-(4-(dimethylamino)piperidin-1-yl)-N-(1-(methylsulfonyl)piperidin-4-yl)-2,6-naphthyridin-3-amine]
22 |  |  | 25 to 250 |  | > 250 |  | < 25 | 25 to 250 | COC1CCN(c2nccc3cnc(NC4CCN(S(C)(=O)=O)CC4)cc23)CC1 [Ex 50, 5-(4-methoxypiperidin-1-yl)-N-(1-(methylsulfonyl)piperidin-4-yl)-2,6-naphthyridin-3-amine]
23 |  |  | 25 to 250 |  | > 250 |  | < 25 | 25 to 250 | CS(=O)(=O)N1CCC(Nc2cc3c(N4CC(O)C4)nccc3cn2)CC1 [Ex 51, 1-(7-((1-(methylsulfonyl)piperidin-4-yl)amino)-2,6-naphthyridin-1-yl)azetidin-3-ol]
